Measurements from patent publication US10251886B1, “4-anilinoquinazoline derivative and albumin conjugates thereof” (National Chiao Tung University, priority 2018, dated 2019).
Where two headings read alike, the source gives them in different places.

Assays:
[1] = tested on: A549 cell; experiment: Cell viability assay (MTT assay), A549 cells; type: cell-based
Method: (§1) A549 cell (ATCC number: CCL-185) was a non-small cell lung carcinoma cell line, expressing wild type EGFR and K-RAS mutation (G12S). H1975 cell (ATCC number: CRL-5908) was a non-small cell lung carcinoma cell line expressing EGFR L858R/T790M mutation. A549 and H1975 cells were cultured in a complete medium at 37° C., 5% CO2 within a humidified incubator (310/Thermo, Forma Scientific, Inc., Marietta, Ohio). The complete medium was RPMI-1640 medium (Gibco, Life Technologies, Grand Island, N.Y., USA) supplemented with 10% fetal bovine serum (FBS), penicillin (100 units/mL), streptomycin (100 μg/mL), and sodium bicarbonate.
(§2) The cells were plated in 96-well plates at a density of 1×10^4 cells/well for 16-20 hours. Thereafter, the cells in each well were treated by 0.1 mL of a treating agent for 24 hours. The treating agents for the wells were different in treating chemicals and their concentrations. The treating chemicals were Erlotinib, Erlotinib analogues (CE 1 to 6 and E1), and BSA-conjugated Erlotinib Analogue (E2). Next, the cells were washed with phosphate-buffered saline (PBS) and were further cultured with fresh complete medium for 2 days. Subsequently, the cells were incubated with 0.5 mg/ml of 3-(4,5-dimethylthiazol-2-yl)-2,5-diphenyltetrazolium bromide (MTT) in fresh complete medium for 4 hours, followed by removal of the medium and addition of dimethyl sulfoxide (DMSO, 0.1 mL) to thereby allow […]. The absorbance of the reduced MTT (formazan) was read on a microplate reader (VERSAmax, Molecular Devices Inc., CA) at 565 nm. […] Tables 1 and 2, and FIGS. 1 and 2 show cell viability values for A549 cell using different treating chemicals in different concentrations. Table 3 and FIG. 3 show cell viability values for H1975 cell using two treating chemicals in different concentrations.

[2] = tested on: H1975 cell; experiment: Cell viability assay (MTT assay), H1975 cells; type: cell-based; settings: treated 24 hours, cultured 2 more days, Table 3
Method: as §1, §2

[3] = Homo sapiens, A549, 24 h, read-out: Cell viability (%)

With `C#Cc1cccc(Nc2ncnc3cc(OCCOS(C)(=O)=O)c(OCCOC)cc23)c1` [CE5, 2-{[4-((3-ethynylphenyl)amino)-6-(2-methoxyethoxy)quinazolin-7-yl]oxy}ethyl methanesulfonate] the viability at 5 µM [1, 3] was 73.7%, the viability at 10 µM [1, 3] was 67.2% and the viability at 20 µM [1, 3] was 56.1%. The viability at 40 µM [1, 3] was 57.9% and the viability at 60 µM [1, 3] was 60.7%.

For `C#Cc1cccc(Nc2ncnc3cc(OCCOC(C)=O)c(OCCOC)cc23)c1` [CE3, 2-{[4-((3-ethynylphenyl)amino)-6-(2-methoxyethoxy)quinazolin-7-yl]oxy}ethyl acetate], the viability at 5 µM [1, 3] was 79.3%, the viability at 10 µM [1, 3] was 77.5% and the viability at 20 µM [1, 3] was 70.1%. For the same compound, the viability at 40 µM [1, 3] was 63% and the viability at 60 µM [1, 3] was 59.5%.

Work on `C#Cc1cccc(Nc2ncnc3cc(OCCN)c(OCCOC)cc23)c1` [CE6, 7-(2-aminoethoxy)-N-(3-ethynylphenyl)-6-(2-methoxyethoxy) quinazolin-4-amine] yielded a viability at 5 µM [1, 3] of 75.4%, a viability at 10 µM [1, 3] of 74.8% and a viability at 20 µM [1, 3] of 74.1%. The viability at 40 µM [1, 3] was 62.7% and the viability at 60 µM [1, 3] was 58.6%.

Work on `C#Cc1cccc(Nc2ncnc3cc(OC)c(OCCOC)cc23)c1` [CE2, N-(3-ethynylphenyl)-7-methoxy-6-(2-methoxyethoxy) quinazolin-4-amine] yielded a viability at 5 µM [1, 3] of 69.5%, a viability at 10 µM [1, 3] of 60.9% and a viability at 20 µM [1, 3] of 62.4%. The viability at 40 µM [1, 3] was 64.5% and the viability at 60 µM [1, 3] was 61.6%.

Work on `C#Cc1cccc(Nc2ncnc3cc(OCCO)c(OCCOC)cc23)c1` [CE4, 2-{[4-((3-ethynylphenyl)amino)-6-(2-methoxyethoxy)quinazolin-7-yl]oxy}ethanol] yielded a viability at 5 µM [1, 3] of 74.5%, a viability at 10 µM [1, 3] of 68.4% and a viability at 20 µM [1, 3] of 63.1%. The viability at 40 µM [1, 3] was 60.7% and the viability at 60 µM [1, 3] was 57.8%.

`C#Cc1cccc(Nc2ncnc3cc(OC)c(OCc4ccccc4)cc23)c1` [CE1, 6-(benzyloxy)-N-(3-ethynylphenyl)-7-methoxyquinazolin-4-amine] was tested, and the viability at 5 µM [1, 3] was 79.9%, the viability at 10 µM [1, 3] was 74.7% and the viability at 20 µM [1, 3] was 73%. For the same compound, the viability at 40 µM [1, 3] was 71.6% and the viability at 60 µM [1, 3] was 63.4%.

With `C#Cc1cccc(Nc2ncnc3cc(OCCOC)c(OCCOC)cc23)c1` [Erlotinib, reference compound] the “Cell viability (%)” value ([2]; treating chemical 0.5 μM) was 98.4% ± 2.7, the “Cell viability (%)” value ([2]; treating chemical 1 μM) was 93.1% ± 2.5 and the “Cell viability (%)” value ([2]; treating chemical 5 μM) was 75.8% ± 4.5. It also gave a viability at 0.5 µM ([1]; Homo sapiens, A549, 24 h, read-out: Cell viability (%), A549 cell, treating chemical 0.5 μM, treated 24 hours, cultured 2 more days, Table 2) of 89.3%, a viability at 1 µM ([1]; Homo sapiens, A549, 24 h, read-out: Cell viability (%), A549 cell, treating chemical 1 μM, treated 24 hours, cultured 2 more days, Table 2) of 89.3% and a viability at 5 µM ([1]; Homo sapiens, A549, 24 h, read-out: Cell viability (%), A549 cell, treating chemical 5 μM, treated 24 hours, cultured 2 more days, Table 1) of 73.8%. For the same compound, the viability at 5 µM ([1]; Homo sapiens, A549, 24 h, read-out: Cell viability (%), A549 cell, treating chemical 5 μM, treated 24 hours, cultured 2 more days, Table 2) was 84.2%, the viability at 10 µM ([1]; Homo sapiens, A549, 24 h, read-out: Cell viability (%), A549 cell, treating chemical 10 μM, treated 24 hours, cultured 2 more days, Table 1) was 71.7% and the viability at 20 µM ([1]; Homo sapiens, A549, 24 h, read-out: Cell viability (%), A549 cell, treating chemical 20 μM, treated 24 hours, cultured 2 more days, Table 1) was 65.9%. The viability at 40 µM ([1]; Homo sapiens, A549, 24 h, read-out: Cell viability (%), A549 cell, treating chemical 40 μM, treated 24 hours, cultured 2 more days, Table 1) was 61.2% and the viability at 60 µM ([1]; Homo sapiens, A549, 24 h, read-out: Cell viability (%), A549 cell, treating chemical 60 μM, treated 24 hours, cultured 2 more days, Table 1) was 58.5%.

For `C#Cc1cccc(Nc2ncnc3cc(OCCI)c(OCCOC)cc23)c1` [Example E1, N-(3-ethynylphenyl)-7-(2-iodoethoxy)-6-(2-methoxyethoxy)quinazolin-4-amine], the “Cell viability in comparison with the commercial available drug (Erlotinib)” value ([1]; A549 cells, Tables 1 and 2, FIGS. 1 and 2) was “significantly lower cell viability”, the viability at 5 µM [1, 3] was 32.8% and the viability at 10 µM [1, 3] was 30.3%. For the same compound, the viability at 20 µM [1, 3] was 26.3%, the viability at 40 µM [1, 3] was 28% and the viability at 60 µM [1, 3] was 24.3%.
